Results reported in the supplement of paper PMC10307832.

Key:
Test in all cases: relative viability (nuclei count vs DMSO), 5 days (fraction); higher = more cells survive
[1] = compound: Cn1nnc2c(C(N)=O)ncn2c1=O [Temozolomide] + CCNC(=O)c1noc(-c2cc(C(C)C)c(O)cc2O)c1-c1ccc(CN2CCOCC2)cc1 [Luminespib] (partner 0.01 µM)
In short: (§1)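 Medians of duplicate plates are given as relative viability. That measure is the nuclei count in treated wells divided by the count in vehicle wells. Counts were taken on 4× images of lung cancer cell lines in 1536-well plates, 5 days after pin-tool dosing the day after seeding with one drug alone or a fixed anchor-drug dose plus five library-drug doses (not always all listed) in √10 steps.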

[2] = compound: Cn1nnc2c(C(N)=O)ncn2c1=O [Temozolomide] + N=C(N)NC(=N)NCCc1ccccc1 [Phenformin] (partner 250 µM)
In short: as §1

[3] = compound: Cn1nnc2c(C(N)=O)ncn2c1=O [Temozolomide] + CC(=O)c1c(C)c2cnc(Nc3ccc(N4CCNCC4)cn3)nc2n(C2CCCC2)c1=O [Palbociclib] (partner 0.5 µM)
In short: as §1

AZD5582 + Lapatinib = compound: C[C@@H](C(=O)N[C@@H](C1CCCCC1)C(=O)N2CCC[C@H]2C(=O)N[C@@H]3[C@@H](CC4=CC=CC=C34)OCC#CC#CCO[C@@H]5CC6=CC=CC=C6[C@@H]5NC(=O)[C@@H]7CCCN7C(=O)[C@H](C8CCCCC8)NC(=O)[C@H](C)NC)NC [AZD5582] + CS(=O)(=O)CCNCc1ccc(-c2ccc3ncnc(Nc4ccc(OCc5cccc(F)c5)c(Cl)c4)c3c2)o1 [Lapatinib] (partner 2 µM)
In short: as §1

Cell Line	relative viability ([1]; first compound 0.2 µM)	relative viability ([1]; first compound 0.6325 µM)	relative viability ([1]; first compound 2 µM)	relative viability ([1]; first compound 6.325 µM)	relative viability ([1]; first compound 20 µM)	relative viability ([2]; first compound 0.2 µM)	relative viability ([2]; first compound 0.6325 µM)	relative viability ([2]; first compound 2 µM)	relative viability ([2]; first compound 6.325 µM)	relative viability ([2]; first compound 20 µM)	relative viability ([3]; first compound 0.6325 µM)	relative viability ([3]; first compound 2 µM)	relative viability ([3]; first compound 6.325 µM)	relative viability ([3]; first compound 20 µM)	relative viability (AZD5582 + Lapatinib; first compound 0.001581 µM)	relative viability (AZD5582 + Lapatinib; first compound 0.005 µM)	relative viability (AZD5582 + Lapatinib; first compound 0.01581 µM)	relative viability (AZD5582 + Lapatinib; first compound 0.05 µM)	relative viability ([3]; first compound 0.2 µM)
EKVX	0.364	0.873	0.888	0.829	0.714	0.185	0.232	0.232	0.236	0.216	0.322	0.292	0.323	0.223	0.207	0.209	0.169	0.199	–
LOU-NH91	0.341	0.341	0.323	0.325	0.361	0.612	0.74	0.711	0.788	0.476	0.566	0.552	0.557	0.572	0.815	0.817	0.794	0.797	0.585
NCI-H1355	0.814	0.726	0.764	0.684	0.641	0.499	0.517	0.522	0.44	0.452	0.4	0.413	0.404	0.361	0.945	0.887	0.952	0.718	0.35
SK-LU-1	0.231	0.195	0.189	0.191	0.24	0.635	0.57	0.461	0.296	0.258	0.397	0.431	0.33	0.318	0.645	0.639	0.859	0.317	0.382
LK-2	0.177	0.186	0.199	0.163	0.187	0.502	0.568	0.455	0.179	0.194	0.719	0.601	0.327	0.2	0.654	1.03	0.965	0.952	0.599
NCI-H650	0.607	0.898	0.816	0.739	0.846	0.547	0.443	0.403	0.404	0.423	0.328	0.319	0.329	0.314	0.592	0.787	0.428	0.606	0.373
NCI-H2085	0.476	0.415	0.41	0.449	0.487	0.594	0.707	0.809	0.689	0.649	0.487	0.457	0.454	0.449	0.667	0.818	0.654	0.731	0.487
RERF-LC-KJ	1.29	1.19	1.32	1.19	1.27	0.444	0.466	0.442	0.41	0.427	1.1	1.11	1.17	1.02	0.732	0.748	0.8	0.83	1.02
NCI-H727	0.239	0.397	0.299	0.37	0.325	0.653	0.659	0.572	0.462	0.544	0.579	0.676	0.715	0.703	0.613	0.868	0.822	0.89	–
NCI-H1651	0.956	0.935	0.578	0.662	1.05	0.388	0.332	0.353	0.268	0.351	0.557	0.5	0.526	0.547	0.862	1.03	0.724	0.988	0.497
NCI-H522	0.877	1.21	0.981	1.18	1.05	0.653	0.664	0.728	0.626	0.629	0.919	1.05	1.02	0.682	–	–	–	–	0.976
IA-LM	–	–	–	–	–	–	–	–	–	–	–	–	–	–	0.623	0.725	0.809	0.584	–
NCI-H1299	–	–	–	–	–	–	–	–	–	–	–	–	–	–	0.846	0.883	0.971	0.812	–
NCI-H1623	–	0.488	0.416	0.361	0.519	–	0.646	0.521	0.563	0.309	–	–	–	–	–	–	–	–	–
LCLC-103H	1.09	1.04	1.07	1.01	0.872	0.36	0.365	0.359	0.31	0.322	0.514	0.496	0.608	0.413	–	–	–	–	0.503
NCI-H1563	0.472	0.499	0.525	0.533	0.487	0.671	0.689	0.668	0.602	0.643	–	–	–	–	0.909	1.15	0.788	1.64	–
NCI-H1648	–	–	–	–	–	–	–	–	–	–	0.23	0.318	0.273	0.283	–	–	–	–	–
ChaGo-K-1	0.679	0.625	0.785	0.557	0.556	0.595	0.484	0.617	0.413	0.509	0.967	0.967	0.873	0.917	–	–	–	–	1.05
Calu-6	–	–	–	–	–	–	–	–	–	–	–	–	–	–	0.626	0.662	1.14	0.568	–
NCI-H2342	0.633	0.674	0.706	0.629	0.637	0.57	0.629	0.625	0.662	0.563	0.529	0.521	0.491	0.53	–	–	–	–	0.501
EBC-1	–	–	–	–	–	–	–	–	–	–	–	–	–	–	0.187	0.226	0.193	0.255	–
A549	–	–	–	–	–	–	0.161	0.136	0.147	0.177	–	–	–	–	0.896	0.983	0.898	0.851	–
SW 900	0.163	0.175	0.169	0.131	0.149	0.754	0.671	0.556	0.464	0.718	0.612	0.556	0.559	0.468	–	–	–	–	0.598
